In ChEMBL document CHEMBL1201862, “PubChem BioAssay data set” (2004):
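How tested: cells in 96-well plates exposed to compound for 48 hours at five concentrations. Abbreviation: GI50, concentration required for 50% inhibition of growth.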 Activity calls are given as the source filed them. No stated cut-off is given here; in the data, active = GI50 up to about 1.1 µM and inactive = higher.

Tests used:
Test in all cases: DTP human tumour cell line panel, 48 h
NCI-H460 = system: NCI-H460
SW-620 = system: SW-620
HCT-15 = system: HCT-15
MDA-MB-435 = system: MDA-MB-435
U-251 = system: U-251
CCRF-CEM = system: CCRF-CEM
SN12C = system: SN12C
HOP-62 = system: HOP-62
NCI/ADR-RES = system: NCI/ADR-RES
RPMI-8226 = system: RPMI-8226
BT-549 = system: BT-549
EKVX = system: EKVX
MDA-MB-231 = system: MDA-MB-231
HCC 2998 = system: HCC 2998
SK-MEL-2 = system: SK-MEL-2
KM12 = system: KM12
ACHN = system: ACHN
CAKI-1 = system: CAKI-1
MCF7 = system: MCF7
DU-145 = system: DU-145
T47D = system: T47D
UO-31 = system: UO-31
A498 = system: A498
SR = system: SR
SK-OV-3 = system: SK-OV-3
M14 = system: M14
OVCAR-3 = system: OVCAR-3
HT-29 = system: HT-29
K562 = system: K562
UACC-62 = system: UACC-62
OVCAR-8 = system: OVCAR-8
OVCAR-5 = system: OVCAR-5
MDA-N = system: MDA-N
SK-MEL-5 = system: SK-MEL-5
LOX IMVI = system: LOX IMVI
Hs-578T = system: Hs-578T
IGROV-1 = system: IGROV-1
SNB-75 = system: SNB-75
SF-295 = system: SF-295
OVCAR-4 = system: OVCAR-4
SK-MEL-28 = system: SK-MEL-28
SNB-19 = system: SNB-19
SF-268 = system: SF-268
HL-60 = system: HL-60
UACC-257 = system: UACC-257
Malme-3M = system: Malme-3M
786-0 = system: 786-0
HOP-92 = system: HOP-92
RXF 393 = system: RXF 393
HCT-116 = system: HCT-116
NCI-H23 = system: NCI-H23
A549 = system: A549
NCI-H522 = system: NCI-H522
TK-10 = system: TK-10
PC-3 = system: PC-3
NCI-H226 = system: NCI-H226
COLO 205 = system: COLO 205

## O=P(O)(O)OC1O[C@H](CO)[C@H](O)[C@H](O)[C@H]1O (stereo not given in full)
NCI-H460
  GI50: > 100 µM (inactive)
SW-620
  GI50: > 100 µM (inactive)
HCT-15
  GI50: > 100 µM
MDA-MB-435
  GI50: > 100 µM (inactive)
U-251
  GI50: > 100 µM (inactive)
CCRF-CEM
  GI50: > 100 µM (inactive)
SN12C
  GI50: > 100 µM (inactive)
HOP-62
  GI50: > 100 µM (inactive)
NCI/ADR-RES
  GI50: > 100 µM (inactive)
RPMI-8226
  GI50: > 100 µM (inactive)
BT-549
  GI50: > 100 µM (inactive)
EKVX
  GI50: > 100 µM (inactive)
MDA-MB-231
  GI50: > 100 µM (inactive)
HCC 2998
  GI50: > 100 µM (inactive)
SK-MEL-2
  GI50: > 100 µM (inactive)
KM12
  GI50: > 100 µM (inactive)
ACHN
  GI50: > 100 µM (inactive)
CAKI-1
  GI50: > 100 µM (inactive)
MCF7
  GI50: > 100 µM (inactive)
DU-145
  GI50: > 100 µM (inactive)
T47D
  GI50: > 100 µM (inactive)
UO-31
  GI50: > 100 µM (inactive)
A498
  GI50: > 100 µM (inactive)
SR
  GI50: > 100 µM (inactive)
SK-OV-3
  GI50: > 100 µM (inactive)
M14
  GI50: > 100 µM (inactive)
OVCAR-3
  GI50: > 100 µM (inactive)
HT-29
  GI50: > 100 µM (inactive)
K562
  GI50: > 100 µM (inactive)
UACC-62
  GI50: > 100 µM (inactive)
OVCAR-8
  GI50: > 100 µM (inactive)
OVCAR-5
  GI50: > 100 µM (inactive)
MDA-N
  GI50: > 100 µM (inactive)
SK-MEL-5
  GI50: > 100 µM (inactive)
LOX IMVI
  GI50: > 100 µM (inactive)
Hs-578T
  GI50: > 100 µM (inactive)
IGROV-1
  GI50: > 100 µM (inactive)
SNB-75
  GI50: > 100 µM (inactive)
SF-295
  GI50: > 100 µM (inactive)
OVCAR-4
  GI50: > 100 µM (inactive)
SK-MEL-28
  GI50: > 100 µM (inactive)
SNB-19
  GI50: > 100 µM (inactive)
SF-268
  GI50: > 100 µM (inactive)
HL-60
  GI50: > 100 µM (inactive)
UACC-257
  GI50: > 100 µM (inactive)
Malme-3M
  GI50: > 100 µM (inactive)
786-0
  GI50: > 100 µM (inactive)
HOP-92
  GI50: > 100 µM (inactive)
RXF 393
  GI50: > 100 µM (inactive)
HCT-116
  GI50: > 100 µM (inactive)
NCI-H23
  GI50: > 100 µM (inactive)
A549
  GI50: > 100 µM (inactive)
NCI-H522
  GI50: > 100 µM (inactive)
TK-10
  GI50: > 100 µM (inactive)

## O=[N+]([O-])c1cc(-[n+]2cc([O-])on2)ccc1Cl
NCI-H460
  GI50: 34.2 µM (inactive)
SW-620
  GI50: 13.4 µM (inactive)
HCT-15
  GI50: 20.7 µM
MDA-MB-435
  GI50: 27.6 µM (inactive)
U-251
  GI50: 17 µM (inactive)
CCRF-CEM
  GI50: 23.6 µM (inactive)
SN12C
  GI50: 16.3 µM (inactive)
HOP-62
  GI50: 15.3 µM (inactive)
NCI/ADR-RES
  GI50: 18 µM (inactive)
RPMI-8226
  GI50: 24.3 µM (inactive)
BT-549
  GI50: 19.9 µM (inactive)
EKVX
  GI50: 19 µM (inactive)
MDA-MB-231
  GI50: 17.4 µM (inactive)
HCC 2998
  GI50: 18.1 µM (inactive)
SK-MEL-2
  GI50: 21.5 µM (inactive)
KM12
  GI50: 22 µM (inactive)
ACHN
  GI50: 16 µM (inactive)
CAKI-1
  GI50: 2.44 µM (inactive)
MCF7
  GI50: 19.4 µM (inactive)
DU-145
  GI50: 16.9 µM (inactive)
T47D
  GI50: 16.4 µM (inactive)
UO-31
  GI50: 17.3 µM (inactive)
SR
  GI50: 29.9 µM (inactive)
SK-OV-3
  GI50: 33.5 µM (inactive)
PC-3
  GI50: > 100 µM (inactive)
M14
  GI50: 15.5 µM (inactive)
OVCAR-3
  GI50: 37.3 µM (inactive)
HT-29
  GI50: 15.1 µM (inactive)
K562
  GI50: 42.4 µM (inactive)
UACC-62
  GI50: 27.8 µM (inactive)
OVCAR-8
  GI50: 20.6 µM (inactive)
OVCAR-5
  GI50: 18.1 µM (inactive)
MDA-N
  GI50: 14.9 µM (inactive)
SK-MEL-5
  GI50: 10.2 µM (inactive)
NCI-H226
  GI50: 83.8 µM (inactive)
COLO 205
  GI50: 27.7 µM (inactive)
LOX IMVI
  GI50: 17.9 µM (inactive)
Hs-578T
  GI50: 13.6 µM (inactive)
IGROV-1
  GI50: 24.3 µM (inactive)
SNB-75
  GI50: 25.8 µM (inactive)
SF-295
  GI50: 23.7 µM (inactive)
OVCAR-4
  GI50: 14 µM (inactive)
SK-MEL-28
  GI50: 16.1 µM (inactive)
SNB-19
  GI50: 14.2 µM (inactive)
SF-268
  GI50: 22.2 µM (inactive)
HL-60
  GI50: 35 µM (inactive)
UACC-257
  GI50: 13.8 µM (inactive)
Malme-3M
  GI50: 13.6 µM (inactive)
786-0
  GI50: 21.3 µM (inactive)
HOP-92
  GI50: 19.2 µM (inactive)
RXF 393
  GI50: 14.8 µM (inactive)
HCT-116
  GI50: 16.1 µM (inactive)
NCI-H23
  GI50: 13.7 µM (inactive)
A549
  GI50: 31 µM (inactive)
NCI-H522
  GI50: 17.8 µM (inactive)
TK-10
  GI50: 18.6 µM (inactive)
